Values quoted from earlier work in patent US7867523B2, “Pharmaceutical composition” (priority 2008, dated 2011).

Legend:
influenza virus = details: administered six hours after infection and continued for twenty-four hours
[1] = test system: immune cell types present in the blood; details: one gram daily for two weeks, patients
[2] = acute and long-term, animals, oral

Compound: Oc1ccc(C=Cc2cc(O)cc(O)c2)cc1 [resveratrol, Resveratrol]
- antiviral effect (restricting ability of the virus to replicate) (influenza virus): substantial

Compound: O=C1O[C@H]([C@@H](O)CO)C(O)=C1O [vitamin C, Ascorbic acid]
- interferon-gama production by T cells [1]: significantly more
- number of NK cells [1]: increased
- number of T cells [1]: remained the same

Compound: Arabinogalactan
- toxicity [2]: no evidence of toxicity
